Laboratory results from DBAASP.
Converted amounts (≈) assume the structure as drawn. Each block holds one compound with its values, some of them ahead of it.

Legend:
Assay in all cases: ≥ marks a high value that may be exact or a test limit, other limits are often not marked, values filed in µg/mL are converted to µM
[1] = system: Escherichia coli K-12
[2] = system: Staphylococcus aureus JE2
[3] = system: Streptococcus pyogenes DMST 17020
[4] = system: Staphylococcus epidermidis ATCC 12228
[5] = system: Acinetobacter baumannii
[6] = system: Enterobacter cloacae
[7] = system: Escherichia coli ATCC 25922
[8] = system: Escherichia coli BL21
[9] = system: Escherichia coli KpC+001812446
[10] = system: Klebsiella pneumoniae ATCC 13883
[11] = system: Klebsiella pneumoniae KpC+001825971
[12] = system: Pseudomonas aeruginosa PA14
[13] = system: Pseudomonas aeruginosa PAO1
[14] = system: Staphylococcus aureus ATCC 12600
[15] = system: Staphylococcus aureus ATCC 25923
[16] = system: Staphylococcus aureus MR
[17] = system: Bibersteinia trehalosi
[18] = system: Corynebacterium pseudotuberculosis ATCC 19410
[19] = system: Klebsiella pneumoniae
[20] = system: Mannheimia haemolytica Serovar 1
[21] = system: Mannheimia haemolytica Serovar 6
[22] = system: Pasteurella multocida
[23] = system: Salmonella enterica subsp. arizonae
[24] = system: Staphylococcus aureus
[25] = system: Legionella pneumophila Lens
[26] = system: Escherichia coli BW25113
[27] = system: Escherichia coli J2210
[28] = system: Escherichia coli JJ2489
[29] = system: Escherichia coli JW0013
[30] = system: Escherichia coli JW0368 ΔsbmA
[31] = system: Escherichia coli JW2778 ΔygdD
[32] = system: Escherichia coli MC1041
[33] = system: Salmonella enterica subsp. enterica serovar Enteritidis MH91989
[34] = system: Salmonella typhimurium SL1344

SMILES: CSCC[C@H](NC(=O)[C@H](CS)NC(=O)[C@H](CC(C)C)NC(=O)[C@@H](NC(=O)[C@@H](N)Cc1cnc[nH]1)[C@@H](C)O)C(=O)N[C@@H](CC(=O)O)C(=O)NCC(=O)NCC(=O)N[C@@H](C)C(=O)N[C@H](C(=O)N[C@@H](Cc1ccc(O)cc1)C(=O)O)[C@@H](C)O [HTLCMDGGATY]
MIC [3]: ≥ 50 µM

SMILES: CSCC[C@H](NC(=O)[C@H](CS)NC(=O)[C@H](CC(C)C)NC(=O)[C@@H](NC(=O)[C@@H](N)Cc1cnc[nH]1)[C@@H](C)O)C(=O)NCC(=O)N[C@@H](CCCCN)C(=O)N[C@@H](C)C(=O)N[C@H](C(=O)N[C@@H](Cc1ccc(O)cc1)C(=O)O)[C@@H](C)O [HTLCMGKATY]
MIC [4]: 250 µM (≈ 281 µg/mL) | MIC [3]: ≥ 250 µM

SMILES: CC[C@H](C)[C@H](NC(=O)[C@H](CCCCN)NC(=O)[C@H](CCCCN)NC(=O)[C@@H](NC(=O)[C@H](CCCCN)NC(=O)[C@H](C)NC(=O)[C@H](C)NC(=O)[C@H](CC(C)C)NC(=O)[C@H](CCCN=C(N)N)NC(=O)[C@H](CCCCN)NC(=O)[C@H](CC(C)C)NC(=O)[C@@H](NC(=O)[C@@H](N)CCCCN)[C@@H](C)CC)[C@@H](C)CC)C(=O)N[C@@H](CC(C)C)C(N)=O [KILKRLAAKIKKIL]
MIC [5]: ≥ 32 µM | MIC [6]: ≥ 32 µM | MIC [7]: 4 µM (≈ 6.54 µg/mL) | MIC [8]: 2 µM (≈ 3.27 µg/mL) | MIC [9]: 8 µM (≈ 13.1 µg/mL) | MIC [10]: 8 µM (≈ 13.1 µg/mL) | MIC [11]: ≥ 32 µM | MIC [12]: 4 µM (≈ 6.54 µg/mL) | MIC [13]: 4 µM (≈ 6.54 µg/mL) | MIC [14]: 4 µM (≈ 6.54 µg/mL) | MIC [15]: > 32 µM | MIC [16]: ≥ 32 µM

SMILES: CC[C@H](C)[C@H](NC(=O)[C@H](Cc1ccccc1)NC(=O)CNC(=O)[C@H](CC(N)=O)NC(=O)[C@@H](N)CCSC)C(=O)N[C@@H](CC(C)C)C(=O)NCC(=O)N[C@@H](CCCCN)C(=O)N[C@@H](Cc1ccccc1)C(=O)N[C@@H](Cc1ccccc1)C(=O)N[C@@H](CC(=O)O)C(=O)N[C@H](C(=O)N[C@@H](C)C(=O)N[C@@H](CCCCN)C(=O)N[C@@H](CCCCN)C(=O)N[C@H](C(=O)N[C@@H](CC(C)C)C(=O)N[C@@H](CC(=O)O)C(=O)N[C@H](C(=O)N[C@H](C(=O)N[C@@H](Cc1ccccc1)C(=O)N[C@@H](CCC(N)=O)C(=O)N[C@@H](CCCCN)C(=O)O)[C@@H](C)CC)[C@@H](C)O)[C@@H](C)CC)C(C)C [MNGFILGKFFDVAKKILDTIFQK]
MIC [25]: 1.22 µM (≈ 3.26 µg/mL)

SMILES: CC[C@H](C)[C@H](NC(=O)[C@H](CC(C)C)NC(=O)[C@H](CC(=O)O)NC(=O)[C@@H](NC(=O)[C@@H](NC(=O)[C@H](Cc1ccccc1)NC(=O)[C@H](CCC(N)=O)NC(=O)[C@@H](N)CCSC)[C@@H](C)CC)[C@@H](C)O)C(=O)N[C@@H](CCCCN)C(=O)N[C@@H](CCCCN)C(=O)N[C@@H](C)C(=O)N[C@H](C(=O)N[C@@H](CC(=O)O)C(=O)N[C@@H](Cc1ccccc1)C(=O)N[C@@H](Cc1ccccc1)C(=O)N[C@@H](CCCCN)C(=O)NCC(=O)N[C@@H](CC(C)C)C(=O)N[C@H](C(=O)NCC(=O)N[C@@H](CC(N)=O)C(=O)N[C@@H](CCCCN)C(=O)O)C(C)C)C(C)C [MQFITDLIKKAVDFFKGLVGNK]
MIC [25]: 2.08 µM (≈ 5.23 µg/mL)

Further lines, with some results ahead:

MIC [1]: ≥ 158 µM | MIC [2]: ≥ 158 µM
SMILES: CC[C@H](C)[C@H](NC(=O)[C@@H](NC(=O)[C@H](CO)NC(=O)[C@H](C)NC(=O)[C@@H](NC(=O)[C@H](CCCCN)NC(=O)[C@H](CCCCN)NC(=O)[C@@H](NC(=O)[C@@H](NC(=O)[C@H](CC(=O)O)NC(=O)[C@H](Cc1ccccc1)NC(=O)[C@H](CC(C)C)NC(=O)CNC(C)=O)C(C)C)[C@@H](C)CC)C(C)C)C(C)C)C(=O)NCC(=O)NCC(=O)N[C@@H](CC(C)C)C(=O)O [GLFDVIKKVASVIGGL]

MIC [17]: 2.85 µM (≈ 10 µg/mL) | MIC [18]: 5.7 µM (≈ 20 µg/mL) | MIC [19]: 0.37 µM (≈ 1.3 µg/mL) | MIC [22]: 2.37 µM (≈ 8.3 µg/mL) | MIC [13]: 1.2 µM (≈ 4.2 µg/mL) | MIC [23]: 1.91 µM (≈ 6.7 µg/mL) | MIC [24]: 1.42 µM (≈ 5 µg/mL)
SMILES: CC[C@H](C)[C@H](NC(=O)[C@H](CCCN=C(N)N)NC(=O)[C@@H](NC(=O)[C@@H](NC(=O)[C@H](CCCN=C(N)N)NC(=O)[C@H](CC(C)C)NC(=O)[C@@H](NC(=O)[C@@H](NC(=O)[C@@H]1CCCN1C(=O)CNC(=O)[C@H](Cc1ccc(O)cc1)NC(=O)[C@H](CCCCN)NC(=O)[C@H](CCCCN)NC(=O)[C@@H](NC(=O)[C@@H](NC(=O)[C@H](Cc1cnc[nH]1)NC(=O)[C@@H](NC(=O)[C@@H](NC(=O)[C@H](CCCCN)NC(=O)[C@H](CCCN=C(N)N)NC(=O)[C@@H](NC(=O)[C@@H](NC(=O)[C@H](CCCN=C(N)N)NC(=O)[C@H](CCCN=C(N)N)NC(=O)[C@H](CC(C)C)NC(=O)[C@H](CC(N)=O)NC(=O)[C@@H](N)CCCCN)[C@@H](C)CC)[C@@H](C)CC)[C@@H](C)CC)[C@@H](C)CC)[C@@H](C)CC)[C@@H](C)CC)[C@@H](C)O)[C@@H](C)CC)[C@@H](C)CC)[C@@H](C)CC)C(=O)N[C@H](C(=O)NCC(N)=O)[C@@H](C)CC [KNLRRIIRKIIHIIKKYGPTILRIIRIIG]
MIC [20]: 1.08 µM (≈ 3.8 µg/mL) | MIC [21]: 0.598 µM (≈ 2.1 µg/mL)

MIC [26]: 0.078 µM (≈ 0.162 µg/mL) | MIC [27]: 0.157 µM (≈ 0.326 µg/mL) | MIC [28]: 0.12 µM (≈ 0.25 µg/mL) | MIC [29]: 0.06 µM (≈ 0.125 µg/mL) | MIC [30]: 0.06 µM (≈ 0.125 µg/mL) | MIC [31]: 0.12 µM (≈ 0.25 µg/mL) | MIC [32]: 0.06 µM (≈ 0.125 µg/mL) | MIC [33]: 0.12 µM (≈ 0.25 µg/mL) | MIC [34]: 0.12 µM (≈ 0.25 µg/mL)
SMILES: CC[C@H](C)[C@H](NC(=O)[C@H](CCCN=C(N)N)NC(=O)[C@@H](N)CCCN=C(N)N)C(=O)N[C@@H](CCCN=C(N)N)C(=O)N[C@@H](CCCCN)C(=O)N[C@@H](CCCN=C(N)N)C(=O)N1CCC[C@H]1C(=O)N1CCC[C@H]1C(=O)N[C@@H](CCCN=C(N)N)C(=O)N[C@@H](CC(C)C)C(=O)N1CCC[C@H]1C(=O)N[C@@H](CCCN=C(N)N)C(=O)N1CCC[C@H]1C(=O)N[C@@H](CCCN=C(N)N)C(=O)N1CCC[C@H]1C(=O)N[C@@H](CCCCN)C(=O)O [RRIRKRPPRLPRPRPK]
